No end group written: not given here.
What was measured:
[1] = tested on: PBMCs of healthy adults reactive to the anti-HLA-A*24 antibody; assay: Induction of specific CTLs from PBMCs, method for quantifying cells producing intracellular IFNγ; type: cell-based, human; parameters: key to specific CTL induction, cytokine quantification method: ∘: “open circle” indicates that the use of a candidate peptide enabled specific CTLs to be induced; x: “cross” indicates that specific CTLs was unable to be induced; conditions: for peptide-specific cytokine production in PBMCs derived from ten people with HLA-A*24 molecule: summary of Table 2
Description: This induction method induces CTLs by adding peptides to culture media of PBMCs. Peptides are presented on antigen-presenting cells present among PBMCs, such as dendritic cells, B cells, macrophages, and certain types of T cells, whereby CTL precursor cells in PBMCs are stimulated to proliferate.
Peripheral blood collected from healthy adults that were reactive to the anti-HLA-A*24 antibody was centrifuged at 3,000 rpm for 5 to 10 minutes. The resulting supernatant plasma was collected. The non-plasma portion was processed according to a conventional method to isolate PBMCs. The characteristic of the present method is the addition of several % of plasma to an induction medium. In the present invention, a favorable result was obtained by adding 5% plasma. The medium is prepared by adding appropriate additives and antibiotics to a medium commonly used for cell culture. The CTL induction medium used in the present invention was RPMI1640 Hepes modify (Sigam) supplemented with 2-mercapotethanol, L-glutamine, and the antibiotics streptomycin and penicillin. In addition to these, insulin, transferrin, selenious acid, pyruvic acid, human serum albumin, solution of non-essential amino acids, and the like may be added. 1 to 3×10^6 PBMCs were suspended in 1 to 2.5 ml of the culture medium. A candidate peptide was added to the cells at a concentration of 1 to 20 μg/ml. The concentration of peptide can be altered depending on the solubility of the peptide. The peptide was added at 10 μg/ml. After two days, IL-2 was added at a final concentration of 20 to 100 U/ml. Round-bottomed culture dishes that allow the exchange of carbon dioxide gas are preferably used to co-culture PBMCs with peptides. In the context of the present invention, 14-ml round-bottomed polypropylene tubes (Becton Dikinson) or 96-well U-bottomed cell culture microtest plates (Becton Dikinson) were used. The adenovirus-specific CTLs were confirmed after about two and four weeks of culture. The cells were stimulated again with the peptide at 10 μg/ml after about two weeks of culture. When the induction of adenovirus-specific CTLs was confirmed, the cells were further stimulated with peptide-pulsed antigen-presenting cells to establish CTL lines.
Approximately 1/10 to all of the cells induced by the above-described method were transferred into 96-well U-bottomed cell culture microtest plates, and the peptide used for the induction was added thereto at a final concentration of 0.01 to 0.05 μg/ml. Then, an intracellular protein transport inhibitor (for example, brefeldin A, monensin, or such) was added, and the cells were cultured in a 5% CO2 incubator at 37° C. for 5 to 16 hours. After culture, the cells were washed, and phycoerythrin (PE)-labeled MHC-tetramer reagent and phycoerythrin-Cy5(PC5)-labeled CD8 antibody (Beckman Coulter) were added thereto. The resulting mixture was allowed to stand at room temperature for 15 to 30 minutes. After washing, the cells were fixed with 4% formaldehyde at 4° C. for 15 minutes and washed with an excess amount of washing solution. After membrane permeabilization treatment with 0.1% saponin, an FITC-labeled anti-IFNγ antibody (Beckman Coulter) was added, and reacted at room temperature for 15 to 30 minutes. After washing, the proportion of IFNγ-positive cells in T cells or MHC-tetramer reagent-positive cells was determined using a flow cytometer.
PBMCs derived from ten people with HLA-A*24 molecule were tested using 10 types of peptides. […] Thus, these six types of candidate epitope peptides serve as adenovirus-specific CTL epitope peptides. Since the adenovirus-specific CTL epitope peptides have the HLA-A*24-binding motif, they are likely to be HLA-A*2402-restricted epitope peptides, which are carried by 60% or more of the Japanese people. In the context of the results described above, MHC-tetramer reagents were synthesized using five types of epitope peptides, and their utility was tested.

[2] = tested on: peripheral blood / PBMCs / peptide-induced CTL lines of HLA-A*24 donors; assay: Staining of peripheral blood, PBMCs or peptide-induced CTL lines with MHC-tetramer reagents; type: cell-based, human; conditions: for profile of tetramer-positive cells: donor ID*24-12, peptide-induced cells
Description: MBL Co. where the present inventors are affiliated with has acquired exclusive patent licensing rights in Japan for MHC-tetramer reagents (U.S. Pat. No. 5,635,363; French Application No. FR9911133; and U.S. Pat. Nos. 5,723,584, 5,874,239, 5,932,433, and 6,265,552) from Beckman Coulter Co. Based on the patents, PE-labeled MHC-tetramer reagents were prepared using adenovirus-specific CTL epitope peptides and HLA-A*2402 molecules.
Adenovirus-specific CTLs quantification was carried out using MHC-tetramer reagents that was prepared using CTL epitope peptides of the present invention, with peripheral blood, PBMCs isolated from peripheral blood, CTL lines induced using CTL epitope peptides as samples. Examples of quantification using PE-labeled MHC-tetramer reagents are described below. Labelling dyes may be used in an appropriate combination depending on the type of flow cytometer to be used, and is not limited to the examples described below.
Ten μl of a PE-labeled MHC-tetramer reagent, 20 μl of an FITC-labeled antibody for T cell (for example, CD8, CD4, or CD3), and such were added to 200 μl of collected peripheral blood. A CD45 antibody labeled with PC5 or such may also be added to eliminate nonspecific fluorescence due to contaminated erythrocytes. After gentle mixing, the mixture was allowed to stand at room temperature for 30 minutes. OptiLyse B was added, and erythrolysis and fixation was carried out according to the manufacturer's protocol. Two ml of PBS was added, stirred, and the cells were centrifuged at 400×g for 5 minutes. After the supernatant was removed by aspiration, the cells were resuspended in 500 μl of PBS and analyzed using a flow cytometer within 24 hours.
Ten μl of a PE-labeled MHC-tetramer reagent, 20 μl of an FITC-labeled T cell surface antibody (for example, CD8, CD4, or CD3), and such were added to an appropriate amount of PBMCs (10^5 to 10^6 cells) or a CTL line induced by use of CTL epitope peptides. A CD45 antibody labeled with PC5 or such may also be added to eliminate nonspecific fluorescence due to contaminated erythrocytes. After gentle mixing, the cells were allowed to stand at room temperature for 30 minutes. Three ml of PBS was added, stirred, and the cells were centrifuged at 400×g for 5 minutes. After the supernatant was removed by aspiration, the cells were resuspended in 500 μl of PBS. When a CTL line is used, 7-AAD Viability Dye (Non-viable cell detection reagent; MBL Co.) may be added to eliminate nonspecific fluorescence caused by non-viable cells. The cells were analyzed using a flow cytometer within 24 hours.
The results of staining obtained using the five types of MHC-tetramer reagents used to prepare the peptide-induced CTL lines are shown in FIG. 5.

[3] = PBMCs from donor ID*24-14 after 24 days of stimulation with LYA

Substance | specific CTL induction, cytokine quantification method ([1]; donor ID *24-1) | specific CTL induction, cytokine quantification method ([1]; donor ID *24-2) | specific CTL induction, cytokine quantification method ([1]; donor ID *24-3) | specific CTL induction, cytokine quantification method ([1]; donor ID *24-5) | specific CTL induction, cytokine quantification method ([1]; donor ID *24-8) | specific CTL induction, cytokine quantification method ([1]; donor ID *24-10) | specific CTL induction, cytokine quantification method ([1]; donor ID *24-11) | specific CTL induction, cytokine quantification method ([1]; donor ID *24-12) | specific CTL induction, cytokine quantification method ([1]; donor ID *24-13) | specific CTL induction, cytokine quantification method ([1]; donor ID *24-14) | peptide-specific cytokine production in PBMCs derived from ten people with HLA-A*24 molecule [1] | profile of tetramer-positive cells [2] | other results
DYLSAANML | ∘ | ∘ | x | x | x | ∘ | x | ∘ | x | x | induce cytokine production in a peptide-specific manner |  | CD8-positive, IFNγ-positive (producing) cells in UR ([1]; donor *24-12, restimulation with the same peptide as used in the induction, % in PBMCs): 0.49%; specific CTL induction confirmed by CD8-positive, IFNγ-positive cells versus HIV peptide ([1]; donor ID*24-12, FIG. 3e-h): specific CTL induction was confirmed; number of persons with peptide-specific IFNγ production / CTL induction ([1]; ten persons tested): four of the ten persons
GYKDRMYSF | x | x | x | x | ∘ | x | x | x | x | x | induce cytokine production in a peptide-specific manner |  | specific CTL induction confirmed by CD8-positive, IFNγ-positive cells versus HIV peptide ([1]; donor ID*24-8, FIG. 3a-d): induced specific CTLs
HLA-A*2402 DYLSAANML (Seq Id No: 1) Tetramer Reagent [DYL-Tet] |  |  |  |  |  |  |  |  |  |  |  | no relevant profile | 
HLA-A*2402 LYANSAHAL (Seq Id No: 2) Tetramer Reagent [LYA-Tet] |  |  |  |  |  |  |  |  |  |  |  |  | CD3-positive, LYA-Tet-positive cells [2, 3]: 1.13%; CD4-positive, LYA-Tet-positive cells [2, 3]: 0.09%; CD8-positive, LYA-Tet-positive cells [2, 3]: 0.18%; population of CD8-negative, tetramer reagent-positive cells in the UL ([2]; peptide-induced CTL lines, FIG. 5, VYS-Tet: donor ID*24-1, *24-3, *24-11, *24-12, *24-14): detected
HLA-A*2402 LYSNVALYL (Seq Id No: 5) Tetramer Reagent [LYS-Tet] |  |  |  |  |  |  |  |  |  |  |  | no relevant profile | 
HLA-A*2402 TYFNLGNKF (Seq Id No: 4) Tetramer Reagent [TYF-Tet] |  |  |  |  |  |  |  |  |  |  |  |  | staining pattern at day 10 compared to Negative Tetramer reagent ([2]; donor ID*24-8, 10 days culture with peptide): clear CD8-positive, MHC-tetramer-positive pattern; population of CD8-positive, tetramer-positive cells in the UR ([2]; peptide-induced CTL lines, donor ID*24-2 and *24-8, FIG. 5): clearly detected

Source: patent US20090142363A1, “CYTOTOXIC T-CELL EPITOPE PEPTIDE AND USE THEREOF” (priority 2005, published 2009)
